In patent US7935825B2, “Arylsulfanyl and heteroarylsulfanyl derivatives for treating pain” (Allergan, Inc., priority 2001, dated 2011):
Where two headings read alike, the source gives them in different places.

Columns and labels:
receptors for PGE2 = conditions: cited from earlier work
tactile allodynia = test: Chronic pain model: spinal nerve (L5/L6) ligation, tactile allodynia measured with von Frey hairs; type: in vivo; conditions: rats
Description: A model for chronic pain (in particular peripheral neuropathy such as causalgia) involves the surgical ligation of the L5 (and optionally the L6) spinal nerves on one side in experimental animals. Rats recovering from the surgery gain weight and display a level of general activity similar to that of normal rats. However, these rats develop abnormalities of the foot, wherein the hindpaw is moderately everted and the toes are held together. More importantly, the hindpaw on the side affected by the surgery appears to become sensitive to pain from low-threshold mechanical stimuli, such as that producing a faint sensation of touch in a human, within about 1 week following surgery. This sensitivity to normally non-painful touch is called “tactile allodynia” and lasts for at least two months. The response includes lifting the affected hindpaw to escape from the stimulus, licking the paw and holding it in the air for many seconds. None of these responses is normally seen in the control group.
Rats are anesthetized before surgery. The surgical site is shaved and prepared either with betadine or Novacaine. Incision is made from the thoracic vertebra Xlll down toward the sacrum. Muscle tissue is separated from the spinal vertebra (left side) at the L4-S2 levels. The L6 vertebra is located and the transverse process is carefully removed with a small rongeur to expose the L4-L6 spinal nerves. The L5 and L6 spinal nerves are isolated and tightly ligated with 6-0 silk thread. The same procedure is done on the right side as a control, except no ligation of the spinal nerves is performed.
A complete hemostasis is confirmed, then the wounds are sutured. A small amount of antibiotic ointment is applied to the incised area, and the rat is transferred to the recovery plastic cage under a regulated heat-temperature lamp. On the day of the experiment, at least seven days after the surgery, six rats per test group are administered the test drugs by intraperitoneal (i.p.) injection or oral gavage. For i.p. injection, the compounds are formulated in approximately 50% DMSO and given in a volume of 1 ml/kg body weight. The compound of Example 7 was tested at doses ranging between 30 and 3000 ng/kg. A volume equal to 1 ml/kg body weight of an appropriate concentration (i.e.. 1 mg/ml for a 1 mg/kg dose) of the compound of Example 7 formulated in approximately 50% DMSO was injected using an 18-gauge, 3-inch gavage needle that is slowly inserted through the esophagus into the stomach.
Tactile allodynia is measured prior to and 30 minutes after drug administration using von Frey hairs that are a series of fine hairs with incremental differences in stiffness. Rats are placed in a plastic cage with a wire mesh bottom and allowed to acclimate for approximately 30 minutes. The von Frey hairs are applied perpendicularly through the mesh to the mid-plantar region of the rats' hindpaw with sufficient force to cause slight buckling and held for 6-8 seconds. The applied force has been calculated to range from 0.41 to 15.1 grams. If the paw is sharply withdrawn, it is considered a positive response. A normal animal will not respond to stimuli in this range, but a surgically ligated paw will be withdrawn in response to a 1-2 gram hair. The 50% paw withdrawal threshold is determined using the method of Dixon, W. J., Ann. Rev. Pharmacol. Toxicol. 20:441-462 (1980). The post-drug threshold is compared to the pre-drug threshold and the percent reversal of tactile sensitivity is calculated based on a normal threshold of 15.1 grams. […] Compared to a saline solution, this compound reversed the allodynic pain by 25% at an i.p. dose of 100 ng/kg, 60% at 300 ng/kg, 90% at […] and 92% at 3000 ng/kg.

[1] = i.p. dose of 100 ng/kg, 30 minutes after drug administration
[2] = i.p. dose of 300 ng/kg, 30 minutes after drug administration

Structure (SMILES)	effect on PGE2 action in tissue (receptors for PGE2; cat trachea or chick ileum)	effect on PGE2 action in tissue (receptors for PGE2; guinea pig ileum or dog fundus)	reversal of allodynic pain (percent reversal of tactile sensitivity) (tactile allodynia; i.p. dose of 30 ng/kg, 30 minutes after drug administration) [%]	reversal of allodynic pain (percent reversal of tactile sensitivity) (tactile allodynia; [1]) [%]	reversal of allodynic pain (percent reversal of tactile sensitivity) (tactile allodynia; [2]) [%]	reversal of allodynic pain (percent reversal of tactile sensitivity) (tactile allodynia; i.p., dose figure not printed ("at ng/kg")) [%]	response to the tactile stimuli that indicate tactile allodynia (tactile allodynia; doses between 30 and 3000 ng/kg)	reversal of allodynic pain (percent reversal of tactile sensitivity) (tactile allodynia; i.p. dose of 3000 ng/kg, 30 minutes after drug administration) [%]	reversal of allodynic pain (percent reversal of tactile sensitivity) (tactile allodynia; i.p. dose printed as 100 mg/kg, 30 minutes after drug administration) [%]
CC(=O)NNC(=O)N1Cc2ccccc2Oc2ccc(Cl)cc21 [SC-19220]	not on other tissues	blocks the effect of PGE2							
CCN(Cc1cc(Br)ccc1OCc1ccccc1)c1ccc(C(=O)O)cn1 [6-[(2-Benzyloxy-5-bromobenzyl)ethylamino]nicotinic acid]			10	50	55	60			
CCN(Cc1ccccc1SCc1ccccc1)c1ccc(C(=O)O)cn1 [Example 7, 6-[(2-Benzylsulfanylbenzyl)ethylamino]nicotinic acid]				25	60		able to reduce the response to the tactile stimuli	92	90
